These results are taken from patent publication US20050130252A1, “Stabilized susceptibility tests of aerobic pathogens” (Wyeth Holdings Corporation, priority 2003, published 2005).

Holding throughout (assay): Broth microdilution MIC
(In general: In broth dilution the organism is exposed to a series of concentrations in liquid medium.)

One assay deals with E. coli ATCC 25922. The assay is classed as cell-based, Escherichia coli. The note with it: for Minimal Inhibitory Concentration: E. coli ATCC 25922; for MIC: Escherichia coli, ATCC25922, E. coli ATCC 25922, read-out: Minimal Inhibitory Concentration. The protocol:
(§1) The process for preparing susceptibility test medium are the following steps: • a. Preparing Mueller Hinton Broth II medium by adding 22 grams powdered media to 1.0 liter distilled water; • b. Autoclaving (121° C., 15 psi, 15 minutes) and cooling the medium; • c. Adding Oxyrase® up to about 10% final volume and keeping at 35-37° C. in an incubator for 30 minutes; • d. Adding about 50 μL to each well of a 96 well microtiter plate; • e. Weighing drug and adding broth to drug to bring up to about (standard 128 μg/ml); • f. Adding 50 μL of the drug to the first column of the titer plate; • g. Diluting by two-fold serial diluting across or down the plate. • h. Preparing a Prompt™ inoculum at 10^8 CFU/ml; • i. Diluting inoculum 1:100 in the broth at […] in 9.9 ml (1:100) is 10^6 colony forming units (CFU) forming the adjusted inoculum; • j. Adding 50 μL of the adjusted inoculum to the wells of the microtiter plate; • k. Incubating the plates at 35-37° C. for 18-22 hours; and • l. Reading, with the unaided eye, the MIC.
(§2) The in vitro activities of tigecycline and control antibiotics were determined by the broth microdilution method as recommended by the NCCLS. (National Committee for Clinical Laboratory Standards, 2003. Methods for Dilution Antimicrobial Susceptibility Tests for Bacteria That Grow Aerobically; Approved Standards: M7-A6, Sixth ed, vol. 23., National Committee for Clinical Laboratory Standards Wayne, Pa.) was used for the standard procedures. MBH with 5% lysed horse blood was used for testing S. pneumoniae and Haemophilus Test Medium was used for testing H. influenzae. Oxyrase® (Oxyrase Inc, Mansfield, Ohio) was used according to the manufacturer's instructions by adding 1 ml of Oxyrase® to 50 ml of media. Media age studies were performed by preparing MHB in multiple flasks, then storing the media under various conditions. MICs were usually performed in duplicate on each day of testing. Storage under anaerobic conditions was conducted in an anaerobic chamber (MACS MG 1000, Don Whitley Scientific LTD). The pH of the media was determined by pH meter (Corning 430). A comparison of the in vitro activity of tigecycline by agar and broth dilution methodolgies with and without Oxyrase® against clinical isolates is shown in Table 1.

A further assay deals with P. aeruginosa ATCC 27853. The assay is classed as cell-based, Pseudomonas aeruginosa. The note with it: for Minimal Inhibitory Concentration: P. aeruginosa ATCC 27853; for MIC: Pseudomonas aeruginosa, ATCC27853, P. aeruginosa ATCC 27853, read-out: Minimal Inhibitory Concentration. The protocol: as §1, §2
Another assay relates to E. faecalis ATCC 29212. Format: cell-based, Enterococcus faecalis. The note with it: for Minimal Inhibitory Concentration: E. faecalis ATCC 29212; for MIC: Enterococcus faecalis, ATCC29212, E. faecalis ATCC 29212, read-out: Minimal Inhibitory Concentration. As for the experimental part: as §1, §2
In another assay the test system is S. aureus ATCC 25923. The assay is classed as cell-based, Staphylococcus aureus. The note with it: for Minimal Inhibitory Concentration: S. aureus ATCC 25923; for MIC: Staphylococcus aureus, ATCC25923, S. aureus ATCC 25923, read-out: Minimal Inhibitory Concentration. As for the experimental part:
as §1, §2

In another assay the test system is S. aureus ATCC 29213. Format: cell-based, Staphylococcus aureus. The note with it: Staphylococcus aureus, ATCC29213, S. aureus ATCC 29213, read-out: Minimal Inhibitory Concentration. As for the experimental part: as §1, §2
Setting [1] is: Mueller Hinton Broth II (Fresh).
Where [2] appears, read: Mueller Hinton Broth II (MHB II).

Each structure is given as a SMILES string. In brackets after ≈: the same amount, converted by molar mass. Like-named read-outs stand apart in the source and are kept apart here.

In the case of `CN(C)CC(=O)Nc1ccc2c(c1O)C(=O)C1=C(O)C3(O)C(=O)C(C(N)=O)=C(O)C(N(C)C)C3CC1C2` (stereo not shown) [DMG-DMDOT, N,N-dimethylglycylamido 9 amino-6-demethyl-6-deoxytetracycline], the “Minimal Inhibitory Concentration” value amounted to 0.12 µg/mL in the assay with E. coli ATCC 25922 (2% Oxyrase); 0.12 µg/mL in the assay with E. coli ATCC 25922 (No Oxyrase); 8 µg/mL in the assay with P. aeruginosa ATCC 27853 (2% Oxyrase); 16 µg/mL in the assay on P. aeruginosa ATCC 27853 (No Oxyrase); 0.06 µg/mL in the assay on E. faecalis ATCC 29212 (2% Oxyrase); 0.06 µg/mL in the assay on E. faecalis ATCC 29212 (No Oxyrase). For the same compound, the “Minimal Inhibitory Concentration” value with S. aureus ATCC 25923 (2% Oxyrase) was found to be 0.12 µg/mL; in the assay with S. aureus ATCC 25923 (No Oxyrase) it was 0.25 µg/mL.
Turning to `CN(C)c1ccc(O)c2c1C[C@H]1C[C@H]3[C@H](N(C)C)C(O)=C(C(N)=O)C(=O)[C@@]3(O)C(O)=C1C2=O` [Minocycline], the MIC in the assay with E. coli ATCC 25922 (2% Oxyrase) worked out at 0.5 mg/L (≈ 1.09 µM); with E. coli ATCC 25922 (MHB II + 0.05% Catalase), 1 mg/L; with E. coli ATCC 25922 (MHB II + 0.05% L-ascorbic Acid) it was 4 mg/L; in the assay with E. coli ATCC 25922 (MHB II + 0.05% L-cysteine) it was 2 mg/L; with E. coli ATCC 25922 (MHB II + 0.05% Sodium Pyruvate) it was 0.5 mg/L; in the assay with E. coli ATCC 25922 (MHB II + 0.05% Thioglycolate), 1 mg/L. The MIC in the assay on E. coli ATCC 25922 (MHB II + 2% Oxyrase) is 0.5 mg/L; in the assay on E. coli ATCC 25922 (setting [1]), 0.5 to 1 mg/L (≈ 1.09 to 2.19 µM); with E. coli ATCC 25922 (setting [2]), 0.5 to 1 mg/L (≈ 1.09 to 2.19 µM); with E. coli ATCC 25922 (No Oxyrase) it was 1 mg/L (≈ 2.19 µM); in the assay on P. aeruginosa ATCC 27853 (2% Oxyrase), 16 mg/L (≈ 35 µM); in the assay with P. aeruginosa ATCC 27853 (No Oxyrase) it was greater than 16 mg/L. The MIC came out at 2 mg/L (≈ 4.37 µM) in the assay with E. faecalis ATCC 29212 (2% Oxyrase); 4 mg/L in the assay with E. faecalis ATCC 29212 (MHB II + 0.05% Catalase); 4 mg/L in the assay with E. faecalis ATCC 29212 (MHB II + 0.05% L-ascorbic Acid); 4 mg/L with E. faecalis ATCC 29212 (MHB II + 0.05% L-cysteine); 2 mg/L with E. faecalis ATCC 29212 (MHB II + 0.05% Sodium Pyruvate); 8 mg/L with E. faecalis ATCC 29212 (MHB II + 0.05% Thioglycolate). The MIC was 2 to 4 mg/L in the assay on E. faecalis ATCC 29212 (MHB II + 2% Oxyrase); 4 mg/L (≈ 8.74 µM) in the assay with E. faecalis ATCC 29212 (setting [1]); 4 to 8 mg/L (≈ 8.74 to 17.5 µM) in the assay with E. faecalis ATCC 29212 (setting [2]); 4 mg/L (≈ 8.74 µM) in the assay on E. faecalis ATCC 29212 (No Oxyrase); 0.5 mg/L in the assay on S. aureus ATCC 29213 (MHB II + 0.05% Catalase); 1 mg/L in the assay on S. aureus ATCC 29213 (MHB II + 0.05% L-ascorbic Acid). In addition, the MIC is 0.25 mg/L in the assay with S. aureus ATCC 29213 (MHB II + 0.05% L-cysteine); 0.25 mg/L with S. aureus ATCC 29213 (MHB II + 0.05% Thioglycolate); 0.12 to 0.25 mg/L with S. aureus ATCC 29213 (MHB II + 2% Oxyrase); 0.12 to 0.5 mg/L (≈ 0.262 to 1.09 µM) in the assay with S. aureus ATCC 29213 (setting [1]); 0.25 to 0.5 mg/L (≈ 0.546 to 1.09 µM) in the assay with S. aureus ATCC 29213 (setting [2]); 0.12 mg/L (≈ 0.262 µM) in the assay with S. aureus ATCC 25923 (2% Oxyrase). Further, the MIC was determined as 0.25 mg/L in the assay with S. aureus ATCC 25923 (MHB II + 0.05% Sodium Pyruvate) and 0.25 mg/L (≈ 0.546 µM) in the assay on S. aureus ATCC 25923 (No Oxyrase).
Take `CN(C)[C@@H]1C(O)=C(C(N)=O)C(=O)[C@@]2(O)C(O)=C3C(=O)c4c(O)cccc4[C@@](C)(O)[C@H]3C[C@@H]12` [Tetracycline]: the MIC is 4 mg/L in the assay on E. coli ATCC 25922 (MHB II + 0.05% Catalase); greater than 4 mg/L in the assay on E. coli ATCC 25922 (MHB II + 0.05% L-ascorbic Acid); 4 mg/L in the assay on E. coli ATCC 25922 (MHB II + 0.05% L-cysteine); 2 mg/L in the assay with E. coli ATCC 25922 (MHB II + 0.05% Sodium Pyruvate); 4 mg/L with E. coli ATCC 25922 (MHB II + 0.05% Thioglycolate); 1 mg/L with E. coli ATCC 25922 (MHB II + 2% Oxyrase). Also, the MIC in the assay on E. coli ATCC 25922 (setting [1]) was 1 to 2 mg/L (≈ 2.25 to 4.5 µM); with E. coli ATCC 25922 (setting [2]) it was 1 to 2 mg/L (≈ 2.25 to 4.5 µM); with E. faecalis ATCC 29212 (MHB II + 0.05% Catalase), 16 mg/L; in the assay with E. faecalis ATCC 29212 (MHB II + 0.05% L-ascorbic Acid) it was greater than 4 mg/L; in the assay on E. faecalis ATCC 29212 (MHB II + 0.05% L-cysteine) it was greater than 4 mg/L; in the assay on E. faecalis ATCC 29212 (MHB II + 0.05% Sodium Pyruvate) it was 16 mg/L. Also, the MIC in the assay on E. faecalis ATCC 29212 (MHB II + 0.05% Thioglycolate) was greater than 16 mg/L; in the assay on E. faecalis ATCC 29212 (setting [1]), greater than 4 mg/L; in the assay on S. aureus ATCC 29213 (MHB II + 0.05% Catalase) it was 1 mg/L; with S. aureus ATCC 29213 (MHB II + 0.05% L-ascorbic Acid), 2 mg/L; in the assay with S. aureus ATCC 29213 (MHB II + 0.05% L-cysteine), 1 mg/L; in the assay with S. aureus ATCC 29213 (MHB II + 0.05% Thioglycolate), 1 mg/L. Besides, the MIC is 0.5 to 1 mg/L with S. aureus ATCC 29213 (MHB II + 2% Oxyrase), 1 to 2 mg/L (≈ 2.25 to 4.5 µM) with S. aureus ATCC 29213 (setting [1]), 0.5 to 1 mg/L (≈ 1.13 to 2.25 µM) with S. aureus ATCC 29213 (setting [2]) and 1 mg/L in the assay on S. aureus ATCC 25923 (MHB II + 0.05% Sodium Pyruvate).
With `CN(C)CC(=O)Nc1cc(N(C)C)c2c(c1O)C(=O)C1=C(O)C3(O)C(=O)C(C(N)=O)=C(O)C(N(C)C)C3CC1C2` (stereo not shown) [DMG-MINO, N,N-dimethylglycylamido 9-aminominocycline], the “Minimal Inhibitory Concentration” value with E. coli ATCC 25922 (2% Oxyrase) was 0.06 µg/mL; in the assay with E. coli ATCC 25922 (No Oxyrase), 0.25 µg/mL; in the assay on P. aeruginosa ATCC 27853 (2% Oxyrase), 16 µg/mL; in the assay with P. aeruginosa ATCC 27853 (No Oxyrase), 16 µg/mL; in the assay on E. faecalis ATCC 29212 (2% Oxyrase) it was 0.03 µg/mL; in the assay with E. faecalis ATCC 29212 (No Oxyrase), 0.25 µg/mL. The “Minimal Inhibitory Concentration” value in the assay on S. aureus ATCC 25923 (2% Oxyrase) amounted to 0.12 µg/mL; in the assay on S. aureus ATCC 25923 (No Oxyrase), 0.50 µg/mL.
